Test results from ChEMBL document CHEMBL3507680, “University of Dundee, Gates Library screen for HepG2 cell viability”.

Assay: Human HepG2 cell viability assay in 384 well format
Assay type: toxicity, cell-based
Design: dose 125 nL, time 70.5 hour; concentration not given beside the values
Conditions: HepG2 cells, read-out: Inhibition

SMILES | cytotoxicity at 70.5 h
Cc1ncc(CNC(=O)Cc2ccsc2)c(C2CCCN2C)n1 (centres undefined) | -5.12%
Cc1ncsc1C(=O)NC1CCN(CCCC#N)CC1 | -1.22%
CC(=O)N1CCC(NC(=O)CN2CCCc3c(C)ccc(F)c32)CC1 | -9.21%
CC(C)n1cc(CN(C)C[C@@H]2CCCN3CCCC[C@H]23)cn1 | -6.94%
O=C1COc2ccc(S(=O)(=O)NC3CC3)c3c2N1CCC3 | 7.26%
O=C(c1cc[nH]n1)N1CC[C@@H]2CN(Cc3cccnc3)S(=O)(=O)[C@@H]2CC1 | -1.58%
Cc1ccsc1-c1nccn1C1CC(=O)N(C(C)C)C1 (centres undefined) | -5.72%
c1ccc(OC[C@]23COC[C@H]2CN(c2ncccn2)C3)nc1 | -9.18%
Cn1nc2c(cc1=O)CN(Cc1nnc(-c3ccco3)o1)CC2 | -3.38%
Cc1cccc(CN2C[C@@H]3COC[C@]3(CNC(=O)N3CCCC3)C2)n1 | 0.0201%
CC(C)OCCC(=O)Nc1c(-c2ccc(F)cc2)ncn1C | 2.71%
Cc1ncoc1C(=O)N1C[C@@H]2COC[C@]2(c2nnc(C3CC3)o2)C1 | -9.55%
C=C(C)CN1C(=O)CC(Cc2ccc(F)cc2)C1=O (centres undefined) | -3.87%
COc1ccc(-c2nc(CCNC(=O)NCC3CCOC3)co2)cc1 (centres undefined) | -11.8%
Cc1noc(C)c1-c1cccc(C2CCN(S(=O)(=O)N(C)C)CC2)n1 | 2.89%
Cc1[nH]ncc1C(=O)N1CCCC(c2ccn[nH]2)C1 (centres undefined) | -12.2%
Cc1cc(CN(CCCO)c2ccccc2)on1 | -0.833%
Cn1cccc1CN1CCc2c(nc(-c3ccccn3)[nH]c2=O)C1 | -2.89%
CC(=O)N1CCCC2(CCN(C(=O)c3nccnc3N)CC2)C1 | 26.1%
c1cnc(N2CCO[C@H]3CN(CC4CC4)C[C@H]32)nc1 | -8.99%
Cc1cc(C)cc(OCCN2CCn3c(C)nnc3C2)c1 | -4.98%
Cc1nc(NCc2cccc(F)c2)cc(C2CCNCC2)n1 | 0.802%

SMILES | cytotoxicity at 70.5 h
Cc1cc2cc(C(=O)N3C[C@H](O)[C@]4(CCCO4)C3)ccc2o1 | -2.18%
COc1c(C2CCCN2C(=O)c2ccc3c(c2)OCO3)c(C)nn1C (centres undefined) | -2.19%
c1cnc(N2CCC3(COCc4cnc(N5CCOCC5)nc43)C2)nc1 (centres undefined) | -16.6%
CSc1nccc(N2CCC(NCCN3CCOCC3)CC2)n1 | -6.94%
c1coc(-c2noc(CN3CCc4cncnc4C3)n2)c1 | -7.56%
COc1ccc(CNCCc2cccc(C(N)=O)c2)cc1C | 11.7%
Cc1occc1CNC(=O)N1CCC(Cc2cnn(C)c2)C1 (centres undefined) | -2.55%
COc1ccc(C2CC(=O)Oc3cc(C)[nH]c(=O)c32)cc1 (centres undefined) | -2.66%
CCN1c2ccc(-c3cncn3CC(=O)NC(C)(C)C)cc2CC1C (centres undefined) | -7.81%
CCOc1ccccc1CNS(=O)(=O)c1ccc2c(c1)CCCC(=O)N2 | -9.4%
CCn1ccnc1CN1CCN(C(C)C(=O)NCC(F)(F)F)CC1 (centres undefined) | 10%
Cc1ccc(F)c(C(=O)N2C[C@@H](C(=O)O)[C@H](c3ccncc3)C2)c1Cl | -8.75%
Cc1ccc(C(CNC(=O)c2cc(CC(C)C)nn2C)N(C)C)cc1 (centres undefined) | -3.96%
NC(=O)c1csc(C(=O)N2CCCC(n3cccn3)C2)c1 (centres undefined) | 1.27%
COc1ccc(CC(=O)N2CCCC(n3cc(C)cn3)C2)cc1F (centres undefined) | -2.2%
O=C(Cc1cccc(F)c1F)NS(=O)(=O)c1ccc(Cl)cn1 | -6.06%
CC(C)[C@@H]1CN(CCOc2ccc(Cl)cc2)C[C@H]1NS(C)(=O)=O | -3.97%
CCC(NC(=O)c1cccc2cc[nH]c12)C(=O)N1CCOCC1 (centres undefined) | -11.2%
CC(C(=O)NC(N)=O)N1CCN(c2ccc(C#N)cc2F)CC1 (centres undefined) | -19.1%
CC(C)c1nn(C)c(N2CCOCC2)c1CNC(C)c1ccco1 (centres undefined) | -2.73%
O=C1CC2(CCN(Cc3ncc[nH]3)CC2)CN1Cc1cc(F)cc(F)c1 | -3.59%
CCN(Cc1ccc2c(c1)OCO2)C(=O)c1cccnc1O | -5.82%
